Experimental data published in PMC9820559, “Investigation of the Fuzzy Complex between RSV Nucleoprotein and Phosphoprotein to Optimize an Inhibition Assay by Fluorescence Polarization” (International Journal of Molecular Sciences, 2022).
Several values for one entry are separate records, joined by “and”; a condition that tells them apart may be missing. Equal entries are not always repeated. Where two headings read alike, the source gives them in different places. Square brackets hold non-standard residues; d marks the D form. Peptide text beside a SMILES is read from it. * marks the point of attachment. BODIPY(FL) = CC1=CC(C)=[N+]2C1=Cc1ccc(CCC(=O)*)n1[B-]2(F)F; pS = N[C@@H](COP(=O)(O)O)C(=O)O

Key:
[1] = Chemical stability of fluorescently labeled P peptides; format: physicochemical; conditions: slightly acidic conditions / HPLC purification and FP assay conditions
Description: We started by labeling the pP11 peptide with N-terminally attached BODIPY FL, as described by Shapiro at al.. […] We then produced F11, another labelled peptide P11, by changing the fluorescent label to fluorescein-5-thiourea (FTU) by coupling with fluorescein-5-isothiocyanate (FITC). […] To directly compare FP and NMR data, we made measurements in MES pH 6.5 buffer. Brij-35 detergent (0.01% w/v) was added below its critical micellar concentration (0.11% w/v) to prevent spurious binding of the peptide to the reading plates. […] We tested buffer with and without salt.
Such derivatives were recently described as tags for bioconjugation, but, to our knowledge, not for an FP assay. […] To assess the properties of BODIPY FL as a fluorescent label for P peptides, we produced a new series of eight dicyano BODIPY FL-labeled (BCNn) peptides of variable length (Table 4) and tested them for N-RNA binding.

[2] = molecular target: T1, RSV N-RNA complex (Human respiratory syncytial virus A, UniProt P03418); assay: Fluorescence polarization inhibition of N-RNA binding to fluorescent probes
T1 construct: Full-length N was produced by co-expression with the C-terminal domain of RSV P protein in E. coli BL21(DE3); made in house; host or cells: E. coli BL21(DE3), co-transformed with pET-N and pGEX-P(161–241)
T1 sequence (P03418 whole entry, looked up, the tested form may be a part, one chain of several): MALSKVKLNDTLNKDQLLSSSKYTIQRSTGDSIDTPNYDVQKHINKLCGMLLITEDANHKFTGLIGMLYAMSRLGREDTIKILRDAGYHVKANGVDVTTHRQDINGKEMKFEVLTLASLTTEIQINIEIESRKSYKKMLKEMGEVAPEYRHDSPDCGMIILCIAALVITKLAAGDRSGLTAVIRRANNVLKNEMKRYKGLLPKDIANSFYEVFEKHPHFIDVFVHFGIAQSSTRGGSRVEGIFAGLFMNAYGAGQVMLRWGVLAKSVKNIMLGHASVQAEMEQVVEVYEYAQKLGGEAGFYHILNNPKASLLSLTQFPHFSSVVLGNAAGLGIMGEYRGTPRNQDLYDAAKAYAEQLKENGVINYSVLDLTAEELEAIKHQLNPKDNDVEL
Text: We next performed inhibition experiments for the F11-(N-RNA) complex by M76 (Figure 4B). FP values decreased with increasing competitor concentration. At saturation, FP nearly reached the value of free F11, showing that the F11 peptide could be nearly completely displaced. Since the same concentration range was used for NNTD and N-RNA, poor solubility of M76 can be ruled out to explain the saturation observed before complete displacement of F11 in the presence NNTD (Figure 3C). This reinforces the hypothesis of a second binding site on NNTD, outside the canonical P-binding site. […]
To probe the potency of M76 as an inhibitor, we carried out competition experiments with the M76 molecule and several BCNn peptides. M76 was able to displace the fluorescent probes from N-RNA, and inhibition curves were obtained (Figure 8E). Since we used different N concentrations to have similar dynamic ranges of FP for the series of fluorescent peptides, we cannot directly compare M76 IC50s. However, Kis may be compared.
Fluorescence polarization measurements were carried out on a Paradigm Detection Platform (Beckman Coulter, Brea, CA, USA) operating with a microplate reader, a fluorescein detection cartridge (excitation range 485/20 nm, emission range 535/25 nm for both parallel and perpendicular components) and the SpectraMax Pro 6.1 software (Molecular Devices, San Jose, CA, USA). Samples were placed in polystyrene black flat bottom 96-well microplates (Cellstar, Greiner bio-one, Frickenhausen, Germany) with 20 µL final volume in each well. If not stated otherwise, the final concentration of fluorescent ligands was 200 nM. The buffer was either 20 mM MES pH 6.5, salt-free or with 250 mM NaCl, or 20 mM Tris pH 8.0 salt-free or with 100 mM NaCl, supplemented with 0.01% Brij-35. Mixing was done using the corresponding plate reader option. The temperature was set to 20 °C. Data were recorded in top reading mode. Measurements were done in triplicate and after an incubation time of 30 min, if not indicated otherwise. Fluorescence polarization (FP) in mFP units was determined from the parallel (I∥) and perpendicular (I⊥) components of the emitted light according to Equation (4). A grating factor G of 1.2 was determined using 1 nM fluorescein in 1 mM NaOH and assuming a theoretical FP of 27 mFP [48]. Background signal was measured from wells containing only buffer, and the mean value was subtracted from each I∥ and I⊥ component. (4) FP (mP)=1000×(I∥−G∗I⊥)/(I∥+G×I⊥)
To assess inhibition of a complex between a fluorescent probe and N protein by peptides or the M76 molecule, the concentration of N was set to work with an FP range comprised between FPmin and ~80% FPmax. Peptides were added from 1 or 2 mM stock solution in water at neutral pH. M76 was added from 10 or 20 mM stock solutions in ethanol or in DMSO. […] Inhibition data were fitted with Origin 7, and in parallel with the Excel solver module. All data were compatible with an absence of cooperativity. FPmax and FPmin were fitted, and the maximal inhibition %i,max was set to 100%. (11) %i=100×[1−(FP−FPmin)/(FPmax−FPmin)] (12) %i=%i,max×[inhibitor]/[inhibitor]+IC50
Inhibition constants Ki were calculated on the IC50-to-Ki converter for a protein-ligand-inhibitor system (https://bioinfo-abcc.ncifcrf.gov/IC50_Ki_Converter/index.php, accessed on 24 August 2022), assuming a competitive mechanism (Equation (13)). This tool takes into account the free concentrations of protein and ligand. (13) Ki=(IC50−[protein]/2)/([peptide]/Kd+1)

[3] = molecular target: T2, RSV NNTD (Human respiratory syncytial virus A, UniProt P03418); assay: Fluorescence polarization inhibition of NNTD binding to F11
T2 construct: The N-terminal domain NNTD (residues 31–252), containing a C-terminal 6x histidine tag; 6xHis (C); made in house; host or cells: E. coli BL21(DE3)
T2 sequence (P03418 31-252): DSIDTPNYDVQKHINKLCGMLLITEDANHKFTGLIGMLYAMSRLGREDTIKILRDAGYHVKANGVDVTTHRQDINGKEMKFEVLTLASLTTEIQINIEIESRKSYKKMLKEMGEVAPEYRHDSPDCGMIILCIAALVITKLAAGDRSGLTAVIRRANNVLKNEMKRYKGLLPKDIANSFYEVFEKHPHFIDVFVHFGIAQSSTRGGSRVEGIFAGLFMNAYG
Description: We therefore tested competition between M76 and F11 by FP. Measurements were done in salt-free buffer to take advantage of the higher F11-NNTD affinity. The concentration of NNTD was set to 5 µM to benefit from a high range of FP values, comprised between FPmin and ~80% FPmax. […] We fitted the data with a Hill equation (Equation (12)), assuming that the maximal inhibition of F11 binding to the canonical site by M76 was obtained at saturation.
Fluorescence polarization measurements were carried out on a Paradigm Detection Platform (Beckman Coulter, Brea, CA, USA) operating with a microplate reader, a fluorescein detection cartridge (excitation range 485/20 nm, emission range 535/25 nm for both parallel and perpendicular components) and the SpectraMax Pro 6.1 software (Molecular Devices, San Jose, CA, USA). […] Mixing was done using the corresponding plate reader option. […] Data were recorded in top reading mode. […] Fluorescence polarization (FP) in mFP units was determined from the parallel (I∥) and perpendicular (I⊥) components of the emitted light according to Equation (4). A grating factor G of 1.2 was determined using 1 nM fluorescein in 1 mM NaOH and assuming a theoretical FP of 27 mFP [48]. Background signal was measured from wells containing only buffer, and the mean value was subtracted from each I∥ and I⊥ component. […]

## Cc1cc(C)n2c1C=C1C=CC(CCC(=O)N[C@@H](CC(=O)O)C(=O)N[C@@H](COP(=O)(O)O)C(=O)N[C@@H](CC(=O)O)C(=O)N[C@@H](CC(N)=O)C(=O)N[C@@H](CC(=O)O)C(=O)N[C@@H](CC(C)C)C(=O)N[C@@H](COP(=O)(O)O)C(=O)N[C@@H](CC(C)C)C(=O)N[C@@H](CCC(=O)O)C(=O)N[C@@H](CC(=O)O)C(=O)N[C@@H](Cc3ccccc3)C(=O)O)=[N+]1[B-]2(F)F [BF2pP11] ({BODIPY(FL)}-D[pS]DNDL[pS]LEDF-OH)
[1]
  chemical stability: prone to degradation

## O=C(O)c1cc(C(=O)O)n(Cc2ccc(Cl)cc2Cl)n1 [M76, 1-(2,4-dichlorobenzyl)-1H-pyrazole-3,5-dicarboxylic acid]
[2]; fluorescent probe F7E 200 nM, 10 µM N-RNA, Tris pH 8 without salt, read-out: IC50
  IC50: 48 ± 5 µM
[2]; fluorescent probe F7E 200 nM, 10 µM N-RNA, from IC50 and Kd 2.5 µM, read-out: Ki
  Ki: 8 µM
[2]; fluorescent probe F11 200 nM, 10 µM N-RNA, Tris pH 8 without salt, read-out: IC50
  IC50: 12.6 µM and 13 µM
[2]; fluorescent probe F11 200 nM, 10 µM N-RNA, from IC50 and Kd 7.6 µM with IC50-to-Ki server, read-out: Ki
  Ki: 3 µM
[2]; fluorescent probe fluorescein 1 200 nM, 20 µM N-RNA, read-out: M76 IC50
  IC50: 27 ± 2 µM
[2]; fluorescent probe fluorescein 1, 20 µM N-RNA, from IC50 and Kd, read-out: M76 Ki
  Ki: 13 µM
[2]; fluorescent probe fluorescein ethyl ester 3 200 nM, 20 µM N-RNA, read-out: M76 IC50
  IC50: 65 ± 9 µM
[2]; fluorescent probe fluorescein ethyl ester 3, 20 µM N-RNA, from IC50 and Kd, read-out: M76 Ki
  Ki: 50 µM
[2]; fluorescent probe fluorescein methyl ester 2 200 nM, 20 µM N-RNA, read-out: M76 IC50
  IC50: 46 ± 7 µM
[2]; fluorescent probe fluorescein methyl ester 2, 20 µM N-RNA, from IC50 and Kd, read-out: M76 Ki
  Ki: 32 µM
[2]; probe BCN5E 200 nM, [N-RNA] 2 µM, Tris pH 8, read-out: Fitted IC50
  IC50: 7 ± 0.6 µM
[2]; probe BCN5E 200 nM, [N-RNA] 20 µM, Tris pH 8, read-out: Fitted IC50
  IC50: 26 ± 2 µM
[2]; probe BCN5E, [N-RNA] 2 µM, IC50-to-Ki server, read-out: Ki
  Ki: 4.8 µM
[2]; probe BCN5E, [N-RNA] 20 µM, IC50-to-Ki server, read-out: Ki
  Ki: 3.6 µM
[2]; probe BCN5E, [N-RNA] 2 and 20 µM, read-out: Ki values for inhibition of BCN5E
  Ki: 3.6 to 4.8 µM
[2]; probe BCN6E 200 nM, [N-RNA] 2 µM, Tris pH 8, read-out: Fitted IC50
  IC50: 2.7 ± 0.2 µM
[2]; probe BCN6E 200 nM, [N-RNA] 10 µM, Tris pH 8, read-out: Fitted IC50
  IC50: 14 ± 1 µM
[2]; probe BCN6E, [N-RNA] 2 µM, IC50-to-Ki server, read-out: Ki
  Ki: 0.7 µM
[2]; probe BCN6E, [N-RNA] 10 µM, IC50-to-Ki server, read-out: Ki
  Ki: 1.1 µM
[2]; probe BCN8E 200 nM, [N-RNA] 2 µM, Tris pH 8, read-out: Fitted IC50
  IC50: 4.5 ± 0.4 µM
[2]; probe BCN8E 200 nM, [N-RNA] 5 µM, Tris pH 8, read-out: Fitted IC50
  IC50: 13 ± 2 µM
[2]; probe BCN8E, [N-RNA] 2 µM, IC50-to-Ki server, read-out: Ki
  Ki: 1.3 µM
[2]; probe BCN8E, [N-RNA] 5 µM, IC50-to-Ki server, read-out: Ki
  Ki: 2 µM
[2]; probe BCN10EE 200 nM, [N-RNA] 2 µM, Tris pH 8, read-out: Fitted IC50
  IC50: 8.9 ± 0.6 µM
[2]; probe BCN10EE 200 nM, inhibitor M76, [N-RNA] 1 µM, Tris pH 8, read-out: Fitted IC50
  IC50: 8.5 ± 0.6 µM
[2]; probe BCN10EE, [N-RNA] 2 µM, IC50-to-Ki server, read-out: Ki
  Ki: 0.5 µM
[2]; probe BCN10EE, inhibitor M76, [N-RNA] 1 µM, IC50-to-Ki server, read-out: Ki
  Ki: 1.1 µM
[2]; probe BCN11SE 200 nM, [N-RNA] 5 µM, Tris pH 8, read-out: Fitted IC50
  IC50: 17 ± 2 µM
[2]; probe BCN11SE, [N-RNA] 5 µM, IC50-to-Ki server, read-out: Ki
  Ki: 1.8 µM
[3]
  IC50: 28 ± 5 µM
  Ki: 2.5 µM
